Results from patent US11819492B2, “Natural product derivatives for inhibiting cellular necroptosis, ferroptosis and oxytosis” (Institut National de la Sante et de la Recherche Medicale …, priority 2016, dated 2023).

Columns and labels:
[1] = tested on: Porcine LLC-PK1 cells (kidney proximal tubule cell line); experiment: Cold-induced cell death (cold storage), MTS viability assay; type: cell-based; settings: 24 hours at 4° C.
Protocol: At it was previously shown (Ahlenstiel et al. Transplantation […], 81(2), 231-239), cold storage induces a cell-death process. Porcine LLC-PK1 cells (kidney proximal tubule cell line) were stored at approximately 4° C. during 24 hours with or without the tested molecules. […] Cells were then incubated at 37° C., 5% CO2 before performing MTS viability assay. Cell viability was monitored using CellTiter 96® AQueous Non-Radioactive Cell Proliferation Assay (Promega, Fitchburg, WI, USA), based on the water-soluble tetrazolium compound MTS (3-[4,5-dimethylthiazol-2-yl]-5-[3-carboxymethoxy-phenyl]-2-[4-sulfophenyl]-2H-tetrazolium, inner salt) according to the manufacturers instructions.

hRPE-1 cells = experiment: Cytotoxicity on human retinal pigment epithelial cell line (MTS); type: cell-based; settings: 0-50 μM tested, 24 hours, FIG. 5
Source text: A colorimetric MTS assay was used to calculate the percentage of cell viability.

[2] = tested on: Human Peripheral Blood Lymphocytes (hPBLs); experiment: Cytotoxicity on human peripheral blood lymphocytes (MTS); type: cell-based; settings: 0-100 μM tested, 24 hours, FIG. 4
Protocol: Viability was assessed by cell proliferation assay (MTS). % of cell viability was determined using the CellTiter 96® AQueous Non-Radioactive Cell Proliferation Assay (Promega). Data represent the quantitative analysis of six independent experiments with means±SD (n=6 individuals).

[3] = tested on: Jurkat FADD-deficient I 2.1 cells; experiment: Hallmarks of TNF-α-induced necroptosis (plasma membrane permeabilization, intracellular ATP) in Jurkat FADD-deficient cells; type: cell-based, human; settings: 0-50 μM, TNF-α 10 ng/ml, 24 hours
Protocol: Cells untreated by TNF-α are used as control (light grey curves). Cells were incubated at 37° C., 5% CO2 for 24 hours before performing the measurements of both plasma membrane permeabilization and intracellular ATP levels. Dead cells were detected by FACS analysis of Propidium Iodide-stained nuclei (FIG. 2). ATP Quantification is performed using the CellTiter-Glo® Luminescent Cell Viability Assay. The luminescent signal produced by a luciferase reaction is proportional to the amount of ATP present and the amount of ATP is directly proportional to the number of metabolically active cells (n=4) (FIG. 3).

[4] = tested on: Human retinal pigment epithelial cell line, ARPE-19; experiment: NaIO3-induced retinal cell death (cellular model of AMD), MTS viability assay; type: cell-based; settings: subtoxic concentration (+/−20 μM), 10 mM NaIO3, 24 hours, P<0.001
Protocol: At it was previously shown (Hanus et al. Cell Death Discov. 2016, 2, 16054), NaIO3 is an oxidizing agent that induces necroptosis in retinal pigment epithelial cell line that can be inhibited by 200 μM of necrostatin-1. […] Human retinal pigment epithelial cell line, ARPE-19, was treated with 10 mM of NaIO3 as cellular model of age-related macular degeneration (AMD). […] Cells were then incubated at 37° C., 5% CO2 for 24 hours before performing MTS viability assay. Cell viability was monitored using CellTiter 96® AQueous Non-Radioactive Cell Proliferation Assay (Promega, Fitchburg, WI, USA), based on the water-soluble tetrazolium compound MTS (3-[4,5-dimethylthiazol-2-yl]-5-[3-carboxymethoxy-phenyl]-2-[4-sulfophenyl]-2H-tetrazolium, inner salt) according to the manufacturers instructions.

[5] = tested on: 456 kinases, including eight lipid kinases; experiment: KINOMEscan Max competition binding assay, profiling against 456 kinases; design: species or system human; settings: poor affinity = over 30% of kinase still on the affinity matrix, FIG. 8
Protocol: This experimental approach quantitatively measures the ability of a compound to compete with an immobilized, active-site directed ligand. […] The ability of compound 1 to compete with the immobilized ligand is measured via quantitative PCR of the DNA tag. The codes reported on the FIG. 8 indicate the subclasses of protein kinases: CMGC for CDKs, MAP kinases, GSK and CDK-like kinases; AGC for Protein kinase A, G, and C families (PKA, PKC, PKG); CAMK for Ca2+/calmodulin-dependent protein kinases; CK1, Cell Kinases 1 (originally known as Casein Kinase 1); STE, STE Kinases (Homologs of yeast STErile kinases); TKL, Tyrosine Kinases-Like; TK, Tyrosine Kinases. Each kinase tested in the assay panel is marked with a circle. The hit kinase reported, RIPK1, is marked with a black circle.

[6] = tested on: Human endothelial cells (HAEC); experiment: In vitro hypoxic cold storage viability assay; type: cell-based
Protocol: Human endothelial cells (HAEC) were grown to confluence, then synchronized using depleted media for 16h. For hypothermia/hypoxia, cells were washed twice with PBS then incubated in University of Wisconsin (UW) solution in 95% N2/5% CO2 atmosphere at 4° C. for 24 hours. […] Shown are mean+/−SD, n=3. UW are cells treated only with UW preservation solution. Controls are cells not subjected to this protocol (cells are continuously oxygenated) but cultivated for the same amount of time in regular culture conditions. […] It should be noted that the hypoxic cold storage mimics the process occurring during graft preservation.

[7] = tested on: Murine hippocampal neuronal cell line HT22; experiment: L-glutamate-induced oxytosis in HT22 cells, MTS viability assay; type: cell-based; settings: 10 mM L-glutamate, 24 hours, FIG. 14
Protocol: Murine hippocampal neuronal cell line HT22 was treated with 10 mM of (L)-glutamate (oxytosis initiator) or 1 μM erastin (ferroptosis initiator).
Cells were then incubated at 37° C., 5% CO2 for 24 hours before performing MTS viability assay. Cell viability was monitored using CellTiter 96® AQueous Non-Radioactive Cell Proliferation Assay (Promega, Fitchburg, WI, USA), based on the water-soluble tetrazolium compound MTS (3-[4,5-dimethylthiazol-2-yl]-5-[3-carboxymethoxy-phenyl]-2-[4-sulfophenyl]-2H-tetrazolium, inner salt) according to the manufacturers instructions.

COc1cc(O)c2c(c1)OC(O)(c1ccc(OCc3ccccc3)cc1)CC2=O (stereo not drawn) [compound 1]
protection from death induced by cold storage ([1]; 0.01-50.00 μM, FIGS. 16a, 16b): protects cells from death induced by cold storage | concentration of maximal activity against cold-induced cell death [1]: 504 | cytotoxicity towards hRPE-1 cells (hRPE-1 cells): not cytotoxic | concentration up to which not cytotoxic towards hPBLs [2]: ≤ 20 µM | plasma membrane permeabilization induced by TNF-α (Propidium Iodide, FACS) ([3]; FIG. 2): inhibits | ATP depletion induced by TNF-α (CellTiter-Glo) ([3]; FIG. 3): inhibits | protection from death induced by NaIO3 [4]: protects significantly | specificity for RIPK1 among the large panel of tested kinases [5]: high specificity | cell survival, treatment during hypoxia ([6]; UW solution, 95% N2/5% CO2, 4° C., 24 hours, FIG. 10): measurable benefits on cell survival | cell survival, treatment during hypoxia and reoxygenation ([6]; UW solution, 95% N2/5% CO2, 4° C., 24 hours, then reoxygenation, FIG. 11): measurable benefits on cell survival | effect on cell survival compared to the control inhibitors of necroptosis (Nec-1 and Nec-1s) ([6]; hypoxic cold storage): significantly better | concentration that protects cells from death induced by L-glutamate [7]: > 25 µM
